Measurements: patent US20060287375A1 (priority 2003, published 2006)
Like-named read-outs stand apart in the source and are kept apart here.

Legend:
[1] = test system: Pyricularia oryzae; format: in vivo; settings: rice seedlings (Aichi Asahi), wettable powder sprayed at 500 ppm active ingredient, 10 ml per pot; examined 5 days after inoculation
[2] = test system: Pyricularia oryzae; format: in vivo; settings: paddy rice (Aichi Asahi), wettable powder on water surface, 1,000 g active ingredient per 10 ares; inoculated 10 days after application, examined 5 days after inoculation
[3] = test system: Pyricularia oryzae; format: in vivo; settings: rice (Aichi Asahi), granule applied to seedling-raising box, 12 g active ingredient per box; inoculated 40 days after application, examined 6 days after inoculation
[4] = test system: Erysiphe graminis; test: Test for control effect on powdery mildew of wheat; format: in vivo; settings: wheat seedlings (Nohrin No. 61), wettable powder at 500 ppm, 10 ml per pot; inoculated 7 days after application, examined 8 days after inoculation
Source text: Test for Control Effect on Powdery Mildew of Wheat
In each of plasic pots of 6 cm in diameter were sown 10 wheat seeds (variety: Nohrin No. 61). They were allowed to germinate in a greenhouse. […] After 7 days from the application, the seedlings were inoculated, by spraying, with conidia of Erysiphe graminis. After 8 days from the inoculation, the total infected area of all the first leaves in the pot was examined.

[5] = test system: Pseudoperonospora cubensis; settings: cucumber seedlings (sagami hanjiro), wettable powder at 500 ppm, 15 ml per pot; examined 7 days later
Experimental: 10 cucumber seeds (variety: sagami hanjiro) were sown in each of vinyl chloride resin made pots of 9 cm×9 cm and were allowed to germinate in a greenhouse for 7 days. The resulting cucumber young seedlings which reached a cotyledon stage were used as a sample plant. […] The plant was air-dried and inoculated, by spraying, with a suspension of conidia of Pseudoperonospora cubensis. Immediately, the pot was placed in a wet house of 20° C. for 24 hours. Then, the pot was transferred into a greenhouse. 7 days later, the total diseased area of all the cotyledons in the pot was examined.

COCN1C(=S)c2ccccc2S1(=O)=O [compound 2]
Evaluation (preventive value, number of lesions of the fourth leaf) [1]: B (Less than 100 to 80.0 or more) | Evaluation (preventive value, number of lesions of the upper young leaf) [2]: B (Less than 100 to 80.0 or more) | Evaluation (preventive value, number of lesions of the upper young leaf) [3]: B (Less than 100 to 80.0 or more) | Evaluation (total infected area of all the first leaves) [4]: B (Less than 25% of untreated plot) | Evaluation (total diseased area of all the cotyledons) [5]: B (Less than 25% of untreated plot)
